We go through ten compounds from patent US20240336604A1 (THE UNITED STATES OF AMERICA, AS REPRESENTED BY THE …, priority 2021, published 2024).

Common to all, as to assay type: cell-based
The target in assay [1] is T1, D3 DAR (Homo sapiens, UniProt P35462). Description: Go BRET activation assay, D3 DAR. Conditions: EC80 DA (30 nM); for Emax: 5 min, read-out: D3 Go BRET Imax. The protocol: Briefly, HEK293T cells transiently expressing either the D2 DAR or D3 DAR and GαoA-Rluc8, untagged-β1, and mVenus-γ2 were harvested with EBSS, plated in 96-well white plates at 20,000 cells/well in DPBS and incubated at RT for 45 min. […] BRET signal was determined by quantifying and calculating the ratio of the light emitted by mVenus (525 nm) over that emitted by RLuc8 (485 nm) using a PHERAstar FSX Microplate Reader (BMG Labtech).
(In general: BRET reads energy transfer from a luciferase to a nearby fluorophore.)

Another assay addresses D2 DAR (Homo sapiens, UniProt P14416). Description: DiscoverX D2 DAR β-arrestin recruitment assay. Also on record: host or cells: CHO. Conditions: EC80 concentration of DA (1 μM). From the text: For a secondary-screen and selectivity assays, DAR PathHunter®-arrestin GPCR cell lines from DiscoverX (Fremont, CA) were used. In the D2 DAR PathHunter®-arrestin GPCR cell line, the D2 DAR is overexpressed and fused with a small 42-amino acid fragment of β-galactosidase called ProLink™ on a CHO cellular background expressing a fusion protein of β-arrestin and a larger N-terminal deletion mutant of β-galactosidase (“enzyme acceptor”). When the D2 DAR is activated by dopamine, it stimulates binding of β-arrestin to the ProLink-tagged DAR and the two complementary parts of β-galactosidase form a functional enzyme. When substrate (PathHunter™ Detection reagent) is added, β-galactosidase hydrolyzes it and generates a chemiluminescent signal.
For orientation: Activated receptors often draw arrestin, which recruitment assays turn into a signal.

In assay [2] the target is T1, D3 DAR. Description: DiscoverX D3 DAR β-arrestin recruitment assay. Also on record: host or cells: CHO. Conditions: for IC50: EC80 concentration of DA (30 nM), read-out: D3 DAR IC50; for Emax / D3 DAR Imax: Imax=maximum inhibition, EC80 DA (30 nM). From the text:
A D3 DAR β-arrestin cell line from DiscoverX (Fremont, CA) was used as described in the protocol below (Table 2). A CHO cell line engineered to overexpress the D3 DAR fused with a small 42-amino acid fragment of β-galactosidase called ProLink™ and a fusion protein consisting of β-arrestin and a larger N-terminal deletion mutant of β-galactosidase was used (DiscoverX catalogue number 93-0579C2). When the D3 DAR is activated by dopamine, it stimulates binding of β-arrestin to ProLink-tagged D3 DARs, and the two complementary parts of β-galactosidase form a functional enzyme. When substrate (PathHunter® Detection reagent, DiscoverX 93-0001) is added, β-galactosidase hydrolyzes it and generates a chemiluminescent signal.

T1 sequence (P35462 whole entry): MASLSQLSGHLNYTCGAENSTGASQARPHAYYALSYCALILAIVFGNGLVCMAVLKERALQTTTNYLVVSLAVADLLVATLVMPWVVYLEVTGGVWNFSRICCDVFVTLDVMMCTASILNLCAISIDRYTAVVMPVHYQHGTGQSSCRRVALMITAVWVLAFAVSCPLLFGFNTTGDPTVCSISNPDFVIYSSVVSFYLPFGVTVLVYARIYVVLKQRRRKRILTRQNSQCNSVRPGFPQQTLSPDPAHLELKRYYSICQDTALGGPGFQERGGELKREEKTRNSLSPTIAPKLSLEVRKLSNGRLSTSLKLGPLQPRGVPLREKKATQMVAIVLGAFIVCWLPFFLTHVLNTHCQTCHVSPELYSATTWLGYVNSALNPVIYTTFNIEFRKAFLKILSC
Chain of D2 DAR (P14416 whole entry, the tested form may be a part): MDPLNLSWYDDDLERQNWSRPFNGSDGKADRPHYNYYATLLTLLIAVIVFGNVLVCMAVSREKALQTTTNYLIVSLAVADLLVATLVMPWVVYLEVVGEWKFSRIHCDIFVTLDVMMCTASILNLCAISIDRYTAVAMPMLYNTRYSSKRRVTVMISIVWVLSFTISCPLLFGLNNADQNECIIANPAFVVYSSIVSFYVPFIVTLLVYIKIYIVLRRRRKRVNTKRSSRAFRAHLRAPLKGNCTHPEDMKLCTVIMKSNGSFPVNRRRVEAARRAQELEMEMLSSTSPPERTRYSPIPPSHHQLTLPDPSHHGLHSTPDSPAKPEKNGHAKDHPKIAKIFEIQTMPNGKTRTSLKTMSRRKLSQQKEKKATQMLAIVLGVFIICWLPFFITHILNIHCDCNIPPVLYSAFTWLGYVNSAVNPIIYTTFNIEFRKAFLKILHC

In the case of `Cc1[nH]c(C)c(S(=O)(=O)Nc2cccc(Cl)c2)c1C(=O)N1CCCC1` [compound 14], on D3 DAR [1], the Emax was above 100% and the IC50 is 1 to 10 µM. On D2 DAR, the “D2 DAR Imax” value is listed as “NA (“NA” indicates not active)” and the IC50 is above 100 µM. For the same compound, at D3 DAR [2], the IC50 lay within 10 to 50 µM and the Emax fell in the range of 80 to 100%.

On to `Cc1[nH]c(C)c(S(=O)(=O)N2CCC(F)(F)C2)c1C(=O)Nc1ccc(C(F)(F)F)c(Cl)c1` [compound 24], for which, on D3 DAR [1], the IC50 is above 50 µM. Further, on D2 DAR, the “D2 DAR Imax” value is reported as “NA (“NA” indicates not active)” and the IC50 was above 100 µM. Besides, at D3 DAR [2], the half-inhibitory concentration (IC50) was 50 to 100 µM and the “D3 DAR Imax” value is “Curve Incomplete”.

Turning to `Cc1ccc(NS(=O)(=O)c2c(C)[nH]c(C)c2C(=O)N2CCCC2C)cc1Cl` (stereo not shown) [compound 3], at D3 DAR [1], the Emax is above 100% and the IC50 was 1 to 10 µM. Further, at D2 DAR, the “D2 DAR Imax” value is reported as “NA (“NA” indicates not active)” and the IC50 is above 100 µM. In addition, on D3 DAR [2], the IC50 was 10 to 50 µM and the Emax fell in the range of 80 to 100%.

`O=C(c1c(S(=O)(=O)Nc2ccc(C(F)(F)F)c(Cl)c2)c[nH]c1C(F)(F)F)N1CCCC1` [compound 37]: on D3 DAR [1], the IC50 was above 50 µM. For the same compound, at D2 DAR, the “D2 DAR Imax” value is given as “NA (“NA” indicates not active)” and the IC50 was above 100 µM. Besides, at D3 DAR [2], the IC50 was 10 to 50 µM and the Emax lay in the range of 80 to 100%.

In the case of `Cc1[nH]c(C)c(S(=O)(=O)Nc2ccc(Cl)cc2C(F)(F)F)c1C(=O)N1CCC(F)(F)C1` [compound 42], at D3 DAR [1], the Emax is above 100% and the IC50 lay within 10 to 50 µM. Besides, at D2 DAR, the “D2 DAR Imax” value is recorded as “NA (“NA” indicates not active)” and the IC50 is above 100 µM. At D3 DAR [2], the IC50 lay within 10 to 50 µM and the Emax fell in the range of 80 to 100%.

Consider `[2H]C1([2H])CCC([2H])([2H])N1C(=O)c1c(C)[nH]c(C)c1S(=O)(=O)Nc1ccc(C(F)(F)F)c(Cl)c1` [compound 23], for which, on D3 DAR [1], the Emax is above 100% and the IC50 was 1 to 10 µM. Besides, at D2 DAR, the “D2 DAR Imax” value is recorded as “NA (“NA” indicates not active)” and the IC50 is above 100 µM. For the same compound, at D3 DAR [2], the IC50 was below 10 µM and the Emax is 80 to 100%.

Turning to `Cc1ccc(NS(=O)(=O)c2c(C)[nH]c(C)c2C(=O)N2CCC(F)(F)C2)cc1Cl` [Cmp. 2], the Emax on D3 DAR [1] was above 100%; at D3 DAR [2], 80 to 100%. Moreover, the results for the IC50 at D3 DAR [1], at D2 DAR and on D3 DAR [2] were 10 to 50 µM, above 100 µM and 10 to 50 µM, respectively. For the same compound, at D2 DAR, the “D2 DAR Imax” value is “NA (“NA” indicates not active)”.

Turning to “N-(3-choro-4-methylphenyl)-2,5-dimethyl-4-(pyrrolidine-1-carbonyl)-1H-pyrrole-3-sulfonamide [compound 31]”, at D3 DAR [1], the “D3 Go BRET Imax” value is “++ (a “++” indicates a detectable Imax of more than 100%, indicative of possible inverse agonist activity)” and the IC50 was in the range of 10 to 50 µM. For the same compound, at D2 DAR, the “D2 DAR Imax” value is recorded as “Curve Incomplete” and the IC50 was above 100 µM. At D3 DAR [2], the IC50 was above 100 µM and the “D3 DAR Imax” value was “Curve Incomplete”.

For `CCOC(=O)C1=NOC2(C1)C(=O)Nc1ccc(OC(F)(F)F)cc12` (stereo not shown) [compound 44], on D3 DAR [1], the “D3 Go BRET Imax” value was “NA (NA means not active)” and the half-inhibitory concentration (IC50) is above 50 µM. Also, on D2 DAR, the “D2 DAR Imax” value is on record as “NA (“NA” indicates not active)” and the IC50 is above 100 µM. Besides, on D3 DAR [2], the IC50 was below 10 µM and the Emax lay within 80 to 100%.

`Cc1[nH]c(C)c(S(=O)(=O)Nc2ccc(C(F)(F)F)c(Cl)c2)c1C(=O)N1CCN(C(=O)OC(C)(C)C)CC1` [compound 19, tert-butyl 4-(4-(N-(3-chloro-4-(trifluoromethyl)phenyl)sulfamoyl)-2,5-dimethyl-1H-pyrrole-3-carbonyl)piperazine-1-carboxylate]: the Emax on D3 DAR [1] is above 100%; on D3 DAR [2] it was 80 to 100%. Also, the IC50 is 10 to 50 µM on D3 DAR [1], above 100 µM against D2 DAR and 50 to 100 µM at D3 DAR [2]. For the same compound, the “D2 DAR Imax” value at D2 DAR is “NA (“NA” indicates not active)”.

As a reminder, the IC50 is the midpoint of a concentration-inhibition curve.
